In patent US20220185822A1, “SELECTIVE LIGANDS OF HUMAN CONSTITUTIVE ANDROSTANE RECEPTOR” (USTAV ORGANICKE CHEMIE A BIOCHEMIE AV CR, V.V.I., priority 2019, published 2022):
“Also recorded” adds a separate entry of the source.

Key:
[1] = target: T1, human CAR ligand-binding domain (LBD) (Homo sapiens, UniProt Q14994); experiment: TR-FRET CAR Coactivator Binding Assay (LanthaScreen); type: biochemical
T1 construct: purchased ThermoFisher Scientific PV4836
Description: The assay uses two fluorophores: a terbium-labeled anti-GST antibody interacting with glutathione-S-transferase tagged human CAR ligand-binding domain (LBD) and a fluorescein-labeled PGC1α coactivator peptide. […] Values above 1 represent the agonistic activity on CAR with subsequent CAR-PGC1α interaction.

[2] = system: CAR+A-EGFP fusion protein; experiment: CAR+A-EGFP translocation into nucleus in COS-1 cells; type: cell-based; conditions: 10 μM/L, 48 h
[3] = target: T2, human androgen receptor (Homo sapiens, UniProt P10275); experiment: Luciferase reporter assay with GAL4 construct with LBD, androgen receptor; type: cell-based; conditions: 10 μM/L
T2 construct: luciferase reporter assays with a GAL4 constructs with LBD of tested nuclear receptors; expressed in transfected cells
T2 sequence (P10275 669-900 limits assumed): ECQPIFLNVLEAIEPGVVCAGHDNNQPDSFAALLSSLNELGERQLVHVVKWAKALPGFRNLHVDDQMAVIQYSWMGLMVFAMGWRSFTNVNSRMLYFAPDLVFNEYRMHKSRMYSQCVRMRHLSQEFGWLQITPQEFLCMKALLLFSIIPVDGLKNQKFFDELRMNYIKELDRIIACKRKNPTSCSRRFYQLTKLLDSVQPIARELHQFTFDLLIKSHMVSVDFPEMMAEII

[4] = target: T3, farnesoid X receptor (Homo sapiens, UniProt Q96RI1); experiment: Luciferase reporter assay with GAL4 construct with LBD, farnesoid X receptor; type: cell-based; conditions: 10 μM/L
T3 construct: luciferase reporter assays with a GAL4 constructs with LBD of tested nuclear receptors; expressed in transfected cells
T3 sequence (Q96RI1 262-486 limits assumed): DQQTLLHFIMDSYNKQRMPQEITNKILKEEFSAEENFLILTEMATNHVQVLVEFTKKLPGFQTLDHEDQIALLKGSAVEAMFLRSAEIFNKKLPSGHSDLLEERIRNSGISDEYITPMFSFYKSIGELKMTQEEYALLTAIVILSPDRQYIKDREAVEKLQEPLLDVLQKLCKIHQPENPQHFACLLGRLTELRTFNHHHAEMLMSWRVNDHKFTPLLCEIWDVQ

[5] = target: T4, glucocorticoid receptor (Homo sapiens, UniProt P04150); experiment: Luciferase reporter assay with GAL4 construct with LBD, glucocorticoid receptor; type: cell-based; conditions: 10 μM/L
T4 construct: luciferase reporter assays with a GAL4 constructs with LBD of tested nuclear receptors; expressed in transfected cells
T4 sequence (P04150 524-758 limits assumed): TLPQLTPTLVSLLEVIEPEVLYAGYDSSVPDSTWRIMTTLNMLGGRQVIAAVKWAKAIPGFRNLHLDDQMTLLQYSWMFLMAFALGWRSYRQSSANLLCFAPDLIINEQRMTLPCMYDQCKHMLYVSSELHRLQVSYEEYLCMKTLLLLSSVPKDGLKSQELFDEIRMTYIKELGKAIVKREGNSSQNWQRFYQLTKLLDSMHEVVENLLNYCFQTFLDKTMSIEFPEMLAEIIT

[6] = target: T5, estradion α receptor (Homo sapiens, UniProt P03372); experiment: Luciferase reporter assay with GAL4 construct with LBD, estradion α receptor; type: cell-based; conditions: 10 μM/L
T5 construct: luciferase reporter assays with a GAL4 constructs with LBD of tested nuclear receptors; expressed in transfected cells
T5 sequence (P03372 311-547 limits assumed): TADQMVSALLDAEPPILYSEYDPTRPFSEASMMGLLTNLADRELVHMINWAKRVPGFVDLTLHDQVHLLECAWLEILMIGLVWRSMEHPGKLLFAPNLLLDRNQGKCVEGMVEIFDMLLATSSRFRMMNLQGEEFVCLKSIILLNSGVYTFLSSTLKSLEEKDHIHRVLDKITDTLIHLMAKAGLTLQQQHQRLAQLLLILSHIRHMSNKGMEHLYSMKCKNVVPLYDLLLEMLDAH

[7] = target: T6, PPARγ (Homo sapiens, UniProt P37231); experiment: Luciferase reporter assay with GAL4 construct with LBD, PPARγ; type: cell-based; conditions: 10 μM/L
T6 construct: luciferase reporter assays with a GAL4 constructs with LBD of tested nuclear receptors; expressed in transfected cells
T6 sequence (P37231 238-503 limits assumed): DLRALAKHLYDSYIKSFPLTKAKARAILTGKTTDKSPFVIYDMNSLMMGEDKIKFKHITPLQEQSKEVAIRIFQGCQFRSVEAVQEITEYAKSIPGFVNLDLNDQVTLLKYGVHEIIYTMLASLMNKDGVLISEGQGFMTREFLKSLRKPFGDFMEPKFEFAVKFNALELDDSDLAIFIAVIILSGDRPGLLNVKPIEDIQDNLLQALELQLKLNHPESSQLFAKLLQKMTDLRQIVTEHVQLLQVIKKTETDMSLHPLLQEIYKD

[8] = target: T7, PPARδ (Homo sapiens, UniProt Q03181); experiment: Luciferase reporter assay with GAL4 construct with LBD, PPARδ; type: cell-based; conditions: 10 μM/L
T7 construct: luciferase reporter assays with a GAL4 constructs with LBD of tested nuclear receptors; expressed in transfected cells
T7 sequence (Q03181 211-439 limits assumed): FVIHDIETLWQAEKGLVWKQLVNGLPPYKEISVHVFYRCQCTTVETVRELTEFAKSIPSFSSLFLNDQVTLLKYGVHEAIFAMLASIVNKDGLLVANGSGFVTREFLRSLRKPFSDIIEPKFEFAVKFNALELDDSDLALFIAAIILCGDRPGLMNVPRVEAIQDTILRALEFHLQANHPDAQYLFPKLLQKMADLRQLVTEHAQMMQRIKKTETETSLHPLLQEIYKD

[9] = target: T8, live X receptor β (Homo sapiens, UniProt P55055); experiment: Luciferase reporter assay with GAL4 construct with LBD, live X receptor β; type: cell-based; conditions: 10 μM/L
T8 construct: luciferase reporter assays with a GAL4 constructs with LBD of tested nuclear receptors; expressed in transfected cells
T8 sequence (P55055 222-460 limits assumed): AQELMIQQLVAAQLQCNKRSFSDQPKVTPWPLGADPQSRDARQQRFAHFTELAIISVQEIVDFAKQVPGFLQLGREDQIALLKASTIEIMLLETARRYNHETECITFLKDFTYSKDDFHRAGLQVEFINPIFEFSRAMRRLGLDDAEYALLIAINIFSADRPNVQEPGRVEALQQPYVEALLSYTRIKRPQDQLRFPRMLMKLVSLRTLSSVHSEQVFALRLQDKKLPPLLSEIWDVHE

[10] = system: thyroid hormone receptors; experiment: Luciferase reporter assay with GAL4 construct with LBD, thyroid hormone receptors; type: cell-based, human; conditions: 10 μM/L
[11] = target: T9, human potassium channel hERG (Homo sapiens, UniProt Q12809); experiment: FluxOR II Green Potassium Ion Channel Assay with HEK293-hERG cells; type: cell-based; conditions: at 20 μM/L
T9 construct: expressed in transfected cells; host or cells: HEK293-hERG
T9 sequence (Q12809 whole entry): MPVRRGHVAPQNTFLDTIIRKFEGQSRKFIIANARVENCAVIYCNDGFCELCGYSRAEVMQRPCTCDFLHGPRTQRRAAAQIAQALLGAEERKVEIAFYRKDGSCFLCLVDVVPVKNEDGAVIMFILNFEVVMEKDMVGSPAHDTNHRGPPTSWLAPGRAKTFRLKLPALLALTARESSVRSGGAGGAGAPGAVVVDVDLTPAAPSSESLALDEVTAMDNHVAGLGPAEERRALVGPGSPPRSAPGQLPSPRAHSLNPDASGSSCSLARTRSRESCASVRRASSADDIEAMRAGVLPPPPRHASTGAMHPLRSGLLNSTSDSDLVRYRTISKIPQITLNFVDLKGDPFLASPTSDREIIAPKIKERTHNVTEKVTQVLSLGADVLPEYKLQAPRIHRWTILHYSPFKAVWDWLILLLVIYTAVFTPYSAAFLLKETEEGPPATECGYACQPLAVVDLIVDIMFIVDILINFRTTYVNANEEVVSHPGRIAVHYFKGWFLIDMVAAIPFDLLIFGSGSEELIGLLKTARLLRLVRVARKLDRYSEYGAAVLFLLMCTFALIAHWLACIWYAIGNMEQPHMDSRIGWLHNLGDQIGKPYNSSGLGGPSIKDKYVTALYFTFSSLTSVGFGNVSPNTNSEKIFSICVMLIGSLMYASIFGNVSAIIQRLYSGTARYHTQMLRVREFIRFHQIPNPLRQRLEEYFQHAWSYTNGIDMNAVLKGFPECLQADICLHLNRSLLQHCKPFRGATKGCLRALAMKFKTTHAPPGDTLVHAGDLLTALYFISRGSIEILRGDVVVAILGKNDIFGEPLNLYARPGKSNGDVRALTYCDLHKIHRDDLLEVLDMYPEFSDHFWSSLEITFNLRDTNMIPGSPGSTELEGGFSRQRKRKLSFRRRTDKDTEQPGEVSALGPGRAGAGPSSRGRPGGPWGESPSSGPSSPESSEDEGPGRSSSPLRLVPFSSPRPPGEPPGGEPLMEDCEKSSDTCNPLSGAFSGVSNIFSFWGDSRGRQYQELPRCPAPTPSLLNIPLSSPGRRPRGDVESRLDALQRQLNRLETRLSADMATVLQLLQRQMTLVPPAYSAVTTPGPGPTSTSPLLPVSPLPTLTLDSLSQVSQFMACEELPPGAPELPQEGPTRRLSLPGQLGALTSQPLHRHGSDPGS
Description: For compound of EXAMPLE 93, The FluxOR™ II Green Potassium Ion Channel Assay with HEK293-hERG cells (stably expressing human potassium channel hERG) seeded on Poly-D-Lysine-coated 384-well microplates (Corning, Cat. #356663) was used according to the manufacturer's instructions. hERG stimulation buffer containing thallium and potassium was added and the intracellular fluorescence was measured.

[12] = Metabolic stability in human liver S9 fraction; type: in vitro ADME; conditions: read-out: T1/2 in human liver S9 fraction
[13] = target: T10, human CYP1A2 (Homo sapiens, UniProt P05177); experiment: Commercial CYP450-Glo inhibition assay, CYP1A2; type: in vitro ADME
T10 construct: purchased Promega V8772
T10 sequence (P05177 whole entry): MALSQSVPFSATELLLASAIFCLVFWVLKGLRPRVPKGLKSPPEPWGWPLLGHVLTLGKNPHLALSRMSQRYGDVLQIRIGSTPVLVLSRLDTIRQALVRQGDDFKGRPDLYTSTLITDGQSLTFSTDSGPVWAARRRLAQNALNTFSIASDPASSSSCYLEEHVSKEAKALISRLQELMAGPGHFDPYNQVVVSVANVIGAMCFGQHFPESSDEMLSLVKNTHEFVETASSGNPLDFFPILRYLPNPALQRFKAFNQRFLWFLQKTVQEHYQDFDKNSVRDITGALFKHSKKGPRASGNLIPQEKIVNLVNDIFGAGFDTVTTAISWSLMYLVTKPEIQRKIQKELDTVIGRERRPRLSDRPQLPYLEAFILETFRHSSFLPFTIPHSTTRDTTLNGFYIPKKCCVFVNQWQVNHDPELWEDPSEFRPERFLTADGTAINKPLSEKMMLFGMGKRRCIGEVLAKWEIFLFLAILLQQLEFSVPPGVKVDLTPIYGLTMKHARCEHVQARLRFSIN

[14] = Repeated Dose 7-day Oral Toxicity Study in Rats; type: in vivo; conditions: 1 and 10 mg/kg
Description: The studies were conducted on female rats.

[15] = system: CYP2B6 mRNA (CAR target gene); experiment: RT-qPCR of CYP2B6 mRNA in HepaRG cells; type: cell-based, human; conditions: 24 h of treatment (FIG. 3)
Description: (§1) Delta-delta method and GAPDH/Gapdh or B2M/B2m housekeeping genes were used for relative quantification. Data are expressed as fold up-/down-regulation compare to vehicle-treated samples/mice.

[16] = system: CYP2B6 mRNA in HepaRG KO CAR cells; experiment: RT-qPCR of CYP2B6 mRNA in HepaRG KO CAR cells; type: cell-based, human; conditions: 24 h of treatment (FIG. 3)
Description: as §1

[17] = system: CYP2B6 mRNA (CAR target gene); experiment: RT-qPCR of CYP2B6 mRNA in primary human hepatocytes; type: cell-based; conditions: 48 hours, 1 and 5 μM/L (FIG. 4)
Description: as §1

[18] = system: CAR target genes mRNAs (Cyp2b10, Cyp2c29, CYP3A4); experiment: Single dose study in humanized PXR-CAR-CYP3A4/3A7 mice, liver RT-qPCR; type: in vivo; conditions: single p.o. 10 mg/kg, 24 hours (FIG. 5)
[19] = type: in vivo
Description: Livers were sampled 24 hours after the last application into liquid nitrogen. In case of i.p. Glucose Tolerance test (IPGTT), each mouse on chronic high fat diet received i.p. application of 20% glucose solution at the dose of lg glucose per kg b.w. Blood glucose concentration was analyzed with a glucometer from blood sampled from the tail. In case of i.p. Isulin Tolerance test (IPITT), mice received insulin administered via i.p. application in the dose of 0.75 mU/g b.w.

[20] = in vivo; conditions: C57BL/6, mouse, 10 mg/kg
[21] = system: CYP3A4, CYP1A2, CYP2C9, CYP2C19, CYP2C8, CYP2D6, CYP2B6 (panel); experiment: in vitro; conditions: both, human, pooled human liver microsomes
[22] = system: Salmonella typhimurium strains TA 98, TA 100, TA 1535, TA 1537 and Escherichia coli WP2 uvrA strain; experiment: Bacterial Reverse Mutation Test (OECD 471)
[23] = 10 mg/kg b.w. by gavage for 4 weeks, 60% high-fat diet 8 weeks

T1 sequence (Q14994 103-348 isoform Q14994-2 limits assumed, other chains not shown): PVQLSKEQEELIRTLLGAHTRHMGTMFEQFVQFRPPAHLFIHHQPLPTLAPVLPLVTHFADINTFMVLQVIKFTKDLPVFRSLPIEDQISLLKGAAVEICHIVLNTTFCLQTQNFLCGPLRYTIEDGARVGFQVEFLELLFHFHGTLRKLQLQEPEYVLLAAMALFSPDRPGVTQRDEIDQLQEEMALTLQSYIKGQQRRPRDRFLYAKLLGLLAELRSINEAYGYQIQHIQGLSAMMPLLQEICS

NC(=O)c1cc(Cn2cc(-c3c(-c4ccc(Cl)cc4)nc4cc(F)ccn34)nn2)ccc1Cl [Example 93, 2-Chloro-5-((4-(2-(4-chlorophenyl)-7-fluoroimidazo[1,2-a]pyridin-3-yl)-1H-1,2,3-triazol-1-yl)methyl)benzamide]
EC50 [1]: 0.071 µM | CAR+A-EGFP fusion protein translocation into nucleus [2]: significantly stimulates | activation of human androgen receptor [3]: do not activate | activation of farnesoid X receptor [4]: do not activate | activation of glucocorticoid receptor [5]: do not activate | activation of estradion α receptor [6]: do not activate | activation of PPARγ [7]: do not activate | activation of PPARδ [8]: do not activate | activation of live X receptor β [9]: do not activate | activation of thyroid hormone receptors [10]: do not activate | interference with hERG activity (FluxOR, HEK293-hERG) [11]: do not interfere with hERG activity | half-life at 2 μM [12]: > 2.83 h | IC50 [13]: > 10 µM | clinical signs of toxicity, Repeated Dose 7-day Oral Toxicity Study in Rats [14]: No significant clinical signs of toxicity | CYP2B6 mRNA in differentiated HepaRG cells [15]: upregulates; also recorded: up-regulation | CYP2B6 mRNA in HepaRG KO CAR cells [16]: not in HepaRG KO CAR cells | CYP2B6 mRNA in primary human hepatocytes [17]: up-regulates | CYP3A4 mRNA in the liver [18]: up-regulate | Cyp2b10 mRNA in the liver [18]: up-regulate | Cyp2c29 mRNA in the liver [18]: up-regulate | insulin sensitivity in IPGTT and IPITT [19, 23]: stimulatory effect on insulin sensitivity; also recorded: alleviates insuline resistance and stimulates the effect of insuline | liver hypertrophy (liver-to-body weight ratio) [19, 23]: does not stimulate significantly liver hypertrophy | Mki67 mRNA in mouse liver ([19]; 10 mg/kg, 4 weeks): did not significantly up-regulate | RNA level of Fasn in mouse liver ([19]; 10 mg/kg, 4 weeks): significantly decrease | RNA level of Scd1 in mouse liver ([19]; 10 mg/kg, 4 weeks): significantly decrease | hepatotoxicity (ALT, AST, ALP, LDH biochemical markers) ([19]; 10 mg/kg, 4 weeks): does not display hepatotoxicity | plasma LDL ([19]; 10 mg/kg, 4 weeks): has an effect; also recorded: decreases | plasma cholesterol ([19]; 10 mg/kg, 4 weeks): has an effect; also recorded: decreases | body weight ([19]; 10 mg/kg, after 4 weeks of application): decrease body weight; also recorded: reduces the body weight | half-life ([20]; ip): 3.62 h | half-life ([20]; oral): 2.83 h | IC50 [21]: > 10 µM | mutagenicity in Bacterial Reverse Mutation Test ([22]; all indicator strains, with and without metabolic activation): non-mutagenic | number of revertants compared to solvent controls (Rt/Rc) ([22]; with or without S9 fraction): < 2
